Data reported in ChEMBL document CHEMBL4138146, “A Schmidt rearrangement-mediated synthesis of novel tetrahydro-benzo[1,4]diazepin-5-ones as potential anticancer and antiprotozoal agents” (Eur J Med Chem, 2017).

How the values were obtained:
Assay type in all cases: functional
OVCAR-8 = experiment: Growth inhibition of human OVCAR8 cells assessed as cell growth at 10^-8 M incubated for 48 hrs by sulforhodamine B assay relative to control; conditions: OVCAR-8, 48 h, read-out: Activity
DU-145 = experiment: Growth inhibition of human DU145 cells assessed as cell growth at 10^-5 M incubated for 48 hrs by sulforhodamine B assay relative to control; conditions: DU-145, 48 h, read-out: Activity
SK-MEL-28 [1] = experiment: Growth inhibition of human SK-MEL-28 cells assessed as cell growth at 10^-6 M incubated for 48 hrs by sulforhodamine B assay relative to control; conditions: SK-MEL-28, 48 h, read-out: Activity
A498 [2] = experiment: Growth inhibition of human A498 cells assessed as cell growth at 10^-4 M incubated for 48 hrs by sulforhodamine B assay relative to control; conditions: A498, 48 h, read-out: Activity
UACC-257 [3] = experiment: Growth inhibition of human UACC257 cells assessed as cell growth at 10^-6 M incubated for 48 hrs by sulforhodamine B assay relative to control; conditions: UACC-257, 48 h, read-out: Activity
CCRF-CEM [4] = experiment: Growth inhibition of human CCRF-CEM cells assessed as cell growth at 10^-8 M incubated for 48 hrs by sulforhodamine B assay relative to control; conditions: read-out: Activity
TK-10 = experiment: Growth inhibition of human TK10 cells assessed as cell growth at 10^-5 M incubated for 48 hrs by sulforhodamine B assay relative to control; conditions: TK-10, 48 h, read-out: Activity
SF-268 [5] = experiment: Growth inhibition of human SF268 cells assessed as cell growth at 10^-8 M incubated for 48 hrs by sulforhodamine B assay relative to control; conditions: SF-268, 48 h, read-out: Activity
SW-620 = experiment: Growth inhibition of human SW620 cells assessed as cell growth at 10^-7 M incubated for 48 hrs by sulforhodamine B assay relative to control; conditions: SW-620, 48 h, read-out: Activity
A498 [6] = experiment: Growth inhibition of human A498 cells assessed as cell growth at 10^-8 M incubated for 48 hrs by sulforhodamine B assay relative to control; conditions: A498, 48 h, read-out: Activity
Malme-3M [7] = experiment: Growth inhibition of human MALME-3M cells assessed as cell growth at 10^-4 M incubated for 48 hrs by sulforhodamine B assay relative to control; conditions: read-out: Activity
PC-3 = experiment: Growth inhibition of human PC3 cells assessed as cell growth at 10^-6 M incubated for 48 hrs by sulforhodamine B assay relative to control; conditions: PC-3, 48 h, read-out: Activity
SF-268 [8] = experiment: Growth inhibition of human SF268 cells assessed as cell growth at 10^-5 M incubated for 48 hrs by sulforhodamine B assay relative to control; conditions: SF-268, 48 h, read-out: Activity
KM12 = experiment: Growth inhibition of human KM12 cells assessed as cell growth at 10^-5 M incubated for 48 hrs by sulforhodamine B assay relative to control; conditions: KM12, 48 h, read-out: Activity
U-251 [9] = experiment: Growth inhibition of human U251 cells assessed as cell growth at 10^-6 M incubated for 48 hrs by sulforhodamine B assay relative to control; conditions: U-251, 48 h, read-out: Activity
SN12C = experiment: Growth inhibition of human SN12C cells assessed as cell growth at 10^-6 M incubated for 48 hrs by sulforhodamine B assay relative to control; conditions: read-out: Activity
HCT-15 = experiment: Growth inhibition of human HCT15 cells assessed as cell growth at 10^-6 M incubated for 48 hrs by sulforhodamine B assay relative to control; conditions: HCT-15, 48 h, read-out: Activity
SF-539 = experiment: Growth inhibition of human SF539 cells assessed as cell growth at 10^-7 M incubated for 48 hrs by sulforhodamine B assay relative to control; conditions: SF-539, 48 h, read-out: Activity
Malme-3M [10] = experiment: Growth inhibition of human MALME-3M cells assessed as cell growth at 10^-6 M incubated for 48 hrs by sulforhodamine B assay relative to control; conditions: read-out: Activity
OVCAR-3 = experiment: Growth inhibition of human OVCAR3 cells assessed as cell growth at 10^-8 M incubated for 48 hrs by sulforhodamine B assay relative to control; conditions: OVCAR-3, 48 h, read-out: Activity
OVCAR-4 = experiment: Growth inhibition of human OVCAR4 cells assessed as cell growth at 10^-5 M incubated for 48 hrs by sulforhodamine B assay relative to control; conditions: OVCAR-4, 48 h, read-out: Activity
Hs-578T = experiment: Growth inhibition of human Hs 578T cells assessed as cell growth at 10^-6 M incubated for 48 hrs by sulforhodamine B assay relative to control; conditions: read-out: Activity
UACC-257 [11] = experiment: Growth inhibition of human UACC257 cells assessed as cell growth at 10^-8 M incubated for 48 hrs by sulforhodamine B assay relative to control; conditions: UACC-257, 48 h, read-out: Activity
SK-MEL-5 = experiment: Growth inhibition of human SK-MEL-5 cells assessed as cell growth at 10^-8 M incubated for 48 hrs by sulforhodamine B assay relative to control; conditions: SK-MEL-5, 48 h, read-out: Activity
K562 = experiment: Growth inhibition of human K562 cells assessed as cell growth at 10^-5 M incubated for 48 hrs by sulforhodamine B assay relative to control; conditions: K562, 48 h, read-out: Activity
CAKI-1 = experiment: Growth inhibition of human Caki1 cells assessed as cell growth at 10^-7 M incubated for 48 hrs by sulforhodamine B assay relative to control; conditions: CAKI-1, 48 h, read-out: Activity
CCRF-CEM [12] = experiment: Growth inhibition of human CCRF-CEM cells assessed as cell growth at 10^-6 M incubated for 48 hrs by sulforhodamine B assay relative to control; conditions: read-out: Activity
M14 = experiment: Growth inhibition of human M14 cells assessed as cell growth at 10^-5 M incubated for 48 hrs by sulforhodamine B assay relative to control; conditions: M14, 48 h, read-out: Activity
HL-60(TB) = experiment: Growth inhibition of human HL-60(TB) cells assessed as cell growth at 10^-6 M incubated for 48 hrs by sulforhodamine B assay relative to control; conditions: HL-60, 48 h, read-out: Activity
EKVX = experiment: Growth inhibition of human EKVX cells assessed as cell growth at 10^-8 M incubated for 48 hrs by sulforhodamine B assay relative to control; conditions: read-out: Activity
T47D = experiment: Growth inhibition of human T47D cells assessed as cell growth at 10^-4 M incubated for 48 hrs by sulforhodamine B assay relative to control; conditions: read-out: Activity
MCF7 = experiment: Growth inhibition of human MCF7 cells assessed as cell growth at 10^-8 M incubated for 48 hrs by sulforhodamine B assay relative to control; conditions: MCF7, 48 h, read-out: Activity
Malme-3M [13] = experiment: Growth inhibition of human MALME-3M cells assessed as cell growth at 10^-8 M incubated for 48 hrs by sulforhodamine B assay relative to control; conditions: read-out: Activity
SK-MEL-28 [14] = experiment: Growth inhibition of human SK-MEL-28 cells assessed as cell growth at 10^-8 M incubated for 48 hrs by sulforhodamine B assay relative to control; conditions: SK-MEL-28, 48 h, read-out: Activity
U-251 [15] = experiment: Growth inhibition of human U251 cells assessed as cell growth at 10^-7 M incubated for 48 hrs by sulforhodamine B assay relative to control; conditions: U-251, 48 h, read-out: Activity

SMILES: CCCCOc1nc2ccccc2cc1C1CNC(=O)c2ccccc2N1 (stereo not given)
- growth at 0.01 µM (OVCAR-8): 100%
- growth at 10 µM (DU-145): 5%
- growth at 1 µM (SK-MEL-28 [1]): 71%
- growth at 100 µM (A498 [2]): -38%
- growth at 1 µM (UACC-257 [3]): 70%
- growth at 0.01 µM (CCRF-CEM [4]): 98%
- growth at 10 µM (TK-10): 31%
- growth at 0.01 µM (SF-268 [5]): 95%
- growth at 0.1 µM (SW-620): 96%
- growth at 0.01 µM (A498 [6]): 82%
- growth at 100 µM (Malme-3M [7]): -53%
- growth at 1 µM (PC-3): 89%
- growth at 10 µM (SF-268 [8]): 31%
- growth at 10 µM (KM12): 17%
- growth at 1 µM (U-251 [9]): 85%
- growth at 1 µM (SN12C): 84%
- growth at 1 µM (HCT-15): 69%
- growth at 0.1 µM (SF-539): 93%
- growth at 1 µM (Malme-3M [10]): 62%
- growth at 0.01 µM (OVCAR-3): 100%
- growth at 10 µM (OVCAR-4): 37%
- growth at 1 µM (Hs-578T): 73%
- growth at 0.01 µM (UACC-257 [11]): 97%
- growth at 0.01 µM (SK-MEL-5): 93%
- growth at 10 µM (K562): 7%
- growth at 0.1 µM (CAKI-1): 86%
- growth at 1 µM (CCRF-CEM [12]): 85%
- growth at 10 µM (M14): 4%
- growth at 1 µM (HL-60(TB)): -19%
- growth at 0.01 µM (EKVX): 90%
- growth at 100 µM (T47D): 10%
- growth at 0.01 µM (MCF7): 88%
- growth at 0.01 µM (Malme-3M [13]): 88%
- growth at 0.01 µM (SK-MEL-28 [14]): 103%
- growth at 0.1 µM (U-251 [15]): 96%
